This note sets out measurements from PubChem BioAssay AID212 (DTP/NCI, 2004).

Each structure is given as a SMILES string. Where “and” joins values, the source holds several entries; their conditions need not be identical. Equal entries are not always repeated. Records with an inconclusive call do not appear.

The assay deals with BDF1 mice, colon carcinoma 38 sc, T/C %. As to the kind of experiment: NCI In Vivo Anticancer Drug Screen. Data for tumor model Colon Carcinoma 38 (subcutaneous) in B6D2F1 (BDF1) mice. To be noted: endpoint: median tumor weight (est.), higher = larger tumour. The method, boiled down:
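Ratio of survival or tumor size, compound-treated animals relative to vehicle controls, in tumor-bearing mice.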

The mark [1] stands for this setting: dose: 12.5 mg/kg/injection, schedule: Q07DX002 (ip), vehicle: saline with Tween-80.
The mark [2] stands for this setting: dose: 25.0 mg/kg/injection, schedule: Q07DX002 (ip), vehicle: saline with Tween-80.
Setting [3] is: dose: 100.0 mg/kg/injection, schedule: Q07DX002 (ip), vehicle: saline with Tween-80.
Where [4] appears, read: dose: 25.0 mg/kg/injection, schedule: Q07DX002 (ip), vehicle: Klucel (hydroxypropylcellulose) (HPC).
Where [5] appears, read: dose: 50.0 mg/kg/injection, schedule: Q07DX002 (ip), vehicle: Klucel (hydroxypropylcellulose) (HPC).
The mark [6] stands for this setting: dose: 100.0 mg/kg/injection, schedule: Q07DX002 (ip), vehicle: Klucel (hydroxypropylcellulose) (HPC).
[7] abbreviates: dose: 200.0 mg/kg/injection, schedule: Q07DX002 (ip), vehicle: Klucel (hydroxypropylcellulose) (HPC).
Setting [8] is: dose: 100.0 mg/kg/injection, schedule: Q07DX002 (ip), vehicle: saline.
Setting [9] is: dose: 200.0 mg/kg/injection, schedule: Q07DX002 (ip), vehicle: saline.
Setting [10] is: dose: 400.0 mg/kg/injection, schedule: Q07DX002 (ip), vehicle: Klucel (hydroxypropylcellulose) (HPC).
Where [11] appears, read: dose: 50.0 mg/kg/injection, schedule: Q07DX002 (ip), vehicle: saline with Tween-80.

As for `C/C(=N/NC(N)=S)c1ccc2ccccc2c1`, the T/C runs as follows: (dose: 6.25 mg/kg/injection, schedule: Q07DX002 (ip), vehicle: saline with Tween-80) 111 % of control; under setting [1], 63 % of control; under setting [2], 70 % of control and 80 % of control; under setting [3], 31 % of control and 48 % of control.

Regarding `COc1cccc2c1C(=O)c1c(O)c3c(c(O)c1C2=O)C[C@@](O)(/C(C)=N/NC(=O)c1ccccc1)C[C@@H]3OC1CC(N)C(O)C(C)O1` (some centres undefined), the T/C is 100 % of control (dose: 2.0 mg/kg/injection, schedule: Q07DX002 (ip), vehicle: water); 107 % of control (dose: 4.0 mg/kg/injection, schedule: Q07DX002 (ip), vehicle: water); 102 % of control (dose: 8.0 mg/kg/injection, schedule: Q07DX002 (ip), vehicle: water); 16 % of control (dose: 16.0 mg/kg/injection, schedule: Q07DX002 (ip), vehicle: water).

`CC(C)NC(=O)N(CCCCBr)N=O`: the T/C under setting [4] was 90 % of control, the T/C under setting [5] is 86 % of control, the T/C under setting [6] is 70 % of control and the T/C under setting [7] is 56 % of control.

Regarding `O=C1c2ccccc2C(=O)c2c3c(cc(NCCNCCO)c21)N(CCO)CCN3`, the T/C reads like this: (dose: 100.0 mg/kg/injection, schedule: Q07DX002 (ip), vehicle: DMSO) 96 % of control; (dose: 200.0 mg/kg/injection, schedule: Q07DX002 (ip), vehicle: DMSO) 105 % of control; (dose: 400.0 mg/kg/injection, schedule: Q07DX002 (ip), vehicle: DMSO) 117 % of control.

In the case of `CCC(C(=O)O)C(=O)O.[NH2-].[NH2-].[Pt+2]`, the T/C by setting is: (dose: 50.0 mg/kg/injection, schedule: Q07DX002 (ip), vehicle: saline) 46 % of control; under setting [8], 19 % of control; under setting [9], 2 % of control.

With `Cc1cc2c(C(C)C)c(O)c(O)c(C=O)c2c(O)c1-c1c(C)cc2c(C(C)C)c(O)c(O)c(C=O)c2c1O`, the T/C reads like this: (dose: 1.5 mg/kg/injection, schedule: Q07DX002 (ip), vehicle: saline with Tween-80) 117 % of control; (dose: 3.0 mg/kg/injection, schedule: Q07DX002 (ip), vehicle: saline with Tween-80) 97 % of control; (dose: 6.0 mg/kg/injection, schedule: Q07DX002 (ip), vehicle: saline with Tween-80) 107 % of control; (dose: 12.0 mg/kg/injection, schedule: Q07DX002 (ip), vehicle: saline with Tween-80) 53 % of control; (dose: 24.0 mg/kg/injection, schedule: Q07DX002 (ip), vehicle: saline with Tween-80) 96 % of control.

Regarding `C1CCC2[N-]CC3CCCCC3[N-]CC3CCCCC3[N-]CC3CCCCC3[N-]CC2C1.[Cu]` (centres undefined), the T/C runs as follows: (dose: 1.56 mg/kg/injection, schedule: Q07DX002 (ip), vehicle: Klucel (hydroxypropylcellulose) (HPC)) 93 % of control; (dose: 1.56 mg/kg/injection, schedule: Q07DX003 (ip), vehicle: Klucel (hydroxypropylcellulose) (HPC)) 97 % of control; (dose: 3.13 mg/kg/injection, schedule: Q07DX002 (ip), vehicle: Klucel (hydroxypropylcellulose) (HPC)) 81 % of control; (dose: 6.25 mg/kg/injection, schedule: Q07DX002 (ip), vehicle: Klucel (hydroxypropylcellulose) (HPC)) 91 % of control; (dose: 6.25 mg/kg/injection, schedule: Q07DX003 (ip), vehicle: Klucel (hydroxypropylcellulose) (HPC)) 100 % of control; (dose: 12.5 mg/kg/injection, schedule: Q07DX002 (ip), vehicle: Klucel (hydroxypropylcellulose) (HPC)) 97 % of control. Also, under “dose: 12.5 mg/kg/injection, schedule: Q07DX003 (ip), vehicle: Klucel (hydroxypropylcellulose) (HPC)”, the T/C is 95 % of control.

Consider `CC(=O)Nc1ccc(/C=N/NC(N)=S)cc1`, for which the T/C runs as follows: under setting [6], 117 % of control and 98 % of control; under setting [10], 98 % of control; (dose: 450.0 mg/kg/injection, schedule: Q07DX002 (ip), vehicle: saline with Tween-80) 86 % of control; (dose: 900.0 mg/kg/injection, schedule: Q07DX002 (ip), vehicle: saline with Tween-80) 57 % of control; (dose: 1800.0 mg/kg/injection, schedule: Q07DX002 (ip), vehicle: saline with Tween-80) 119 % of control.

Consider `O=NN(CCCl)C(=O)Oc1cc(Cl)c(Cl)cc1Cl`, for which the T/C runs as follows: under setting [4], 117 % of control; under setting [5], 63 % of control.

Turning to `C=C1C(=O)OC2/C=C(\CO)C(OC(C)=O)CC(O)/C(C)=C/C(OC(=O)C(C)CC)C12` (centres undefined), the T/C under setting [6] is 165 % of control, the T/C under setting [7] is 95 % of control and the T/C under setting [10] is 178 % of control.

Turning to `CN=C(N)N/N=C(\C)c1ccc2c(c1)Cc1ccccc1-2`, the T/C reads like this: under setting [1], 95 % of control and 98 % of control; under setting [2], 63 % of control and 85 % of control; under setting [11], 83 % of control and 86 % of control; under setting [3], 81 % of control and 93 % of control.

With `O=Cc1ccc(C=O)c(Cl)c1`, the T/C runs as follows: under setting [5], 107 % of control; under setting [6], 79 % of control; under setting [7], 95 % of control; under setting [10], 75 % of control.

`COc1ccc(C(=O)c2no[n+]([O-])c2C(=O)c2ccc(OC)cc2)cc1`: the T/C runs as follows: under setting [1], 107 % of control; under setting [11], 99 % of control and 106 % of control.

Take `CCCCCC(=O)O[C@]1(C(C)=O)CC[C@H]2[C@@H]3CCC4=CC(=O)CC[C@]4(C)[C@H]3CC[C@@]21C`: the T/C was 78 % of control (dose: 25.0 mg/kg/injection, schedule: Q07DX003 (ip), vehicle: Klucel (hydroxypropylcellulose) (HPC)); 62 % of control (dose: 50.0 mg/kg/injection, schedule: Q07DX003 (ip), vehicle: Klucel (hydroxypropylcellulose) (HPC)); 81 % of control (dose: 100.0 mg/kg/injection, schedule: Q07DX003 (ip), vehicle: Klucel (hydroxypropylcellulose) (HPC)); 82 % of control (dose: 200.0 mg/kg/injection, schedule: Q07DX003 (ip), vehicle: Klucel (hydroxypropylcellulose) (HPC)); 49 % of control (dose: 400.0 mg/kg/injection, schedule: Q07DX003 (ip), vehicle: Klucel (hydroxypropylcellulose) (HPC)).

For `CCCCNc1ccc2nnc(C)n2n1`, the T/C is, setting by setting: (dose: 25.0 mg/kg/injection, schedule: Q07DX002 (ip), vehicle: other) 102 % of control; (dose: 200.0 mg/kg/injection, schedule: Q07DX002 (ip), vehicle: other) 98 % of control and 108 % of control.

Regarding `CCCC(=O)O.CCCC(=O)O.CCCC(=O)O.CCCC(=O)O.[Rh].[Rh]`, the T/C was 87 % of control (dose: 0.25 mg/kg/injection, schedule: Q07DX002 (ip), vehicle: saline + alcohol); 76 % of control (dose: 0.5 mg/kg/injection, schedule: Q07DX002 (ip), vehicle: saline + alcohol); 91 % of control (dose: 1.0 mg/kg/injection, schedule: Q07DX002 (ip), vehicle: saline + alcohol).

With `O=CCC(O)C(O)C(O)CO` (centres undefined), the T/C was 108 % of control (dose: 600.0 mg/kg/injection, schedule: Q07DX002 (ip), vehicle: suspension in saline); 96 % of control (dose: 1800.0 mg/kg/injection, schedule: Q07DX002 (ip), vehicle: suspension in saline); 102 % of control (dose: 2400.0 mg/kg/injection, schedule: Q07DX002 (ip), vehicle: suspension in saline); 74 % of control (dose: 3600.0 mg/kg/injection, schedule: Q07DX002 (ip), vehicle: suspension in saline).

In the case of `BrC1CC(Br)c2c1c1c(c3c2C(Br)CC3Br)C(Br)CC1Br` (centres undefined), the T/C by setting is: under setting [1], 157 % of control; under setting [2], 94 % of control and 103 % of control; (dose: 200.0 mg/kg/injection, schedule: Q07DX002 (ip), vehicle: saline with Tween-80) 80 % of control and 86 % of control; (dose: 400.0 mg/kg/injection, schedule: Q07DX002 (ip), vehicle: saline with Tween-80) 81 % of control and 105 % of control.

With `CC1CC2OC2/C=C\C=C\C(=O)Cc2c(Cl)c(O)cc(O)c2C(=O)O1` (centres undefined), the T/C was 72 % of control (dose: 30.0 mg/kg/injection, schedule: Q07DX002 (ip), vehicle: Klucel (hydroxypropylcellulose) (HPC)); 74 % of control (dose: 60.0 mg/kg/injection, schedule: Q07DX002 (ip), vehicle: Klucel (hydroxypropylcellulose) (HPC)); 105 % of control (dose: 120.0 mg/kg/injection, schedule: Q07DX002 (ip), vehicle: Klucel (hydroxypropylcellulose) (HPC)).

Regarding `O=c1n[n+]([O-])ccn1C1OC(CO)C(O)C1O` (centres undefined), the T/C is, setting by setting: under setting [8], 160 % of control; under setting [9], 117 % of control; (dose: 600.0 mg/kg/injection, schedule: Q07DX002 (ip), vehicle: saline) 73 % of control.
